Series [1] relates to metastatic pancreatic cancer. The settings on record: treatment naive patients with metastatic cancer; nab-paclitaxel plus gemcitabine vs gemcitabine; cited from earlier work.
Series [2] deals with pancreatic cancer. Conditions: cited from earlier work; for overall survival: Folfirinox regimen vs gemcitabine.
Series [3] has as its system DMBA breast tumors. Briefly: DMBA breast tumor model, TSC before chemotherapy. The class given is in vivo. Conditions: TSC and control groups. The protocol: Breast tumors were induced through injection of DMBA (dimethylbenzantracene) under the mammary tissue of female rats. The tumors usually grow in most rats and reach measurable conditions after 10 days.
The following studies used a method in which a 3-mL syringe is filled first with 1 ml of DMBA dissolved in sunflower seed oil (20 mg DMBA per mL of solution). Following that, 2 mL's of air are pulled into the syringe. The needle of the syringe is then inserted under the mammary tissue near a hind leg and the air in the syringe is carefully injected. The injection of the air forms a “pocket”, and then the 1 mL of DMBA solution is injected into that pocket.
After the tumors have grown up (about 10 days), their volumes are estimated by measuring the diameter (d) and the length (L) of the football-shaped tumors formed. This is done using calipers after feeling the tumor with one's fingers. To estimate the volume of the tumor, you multiply the diameter squared times the length and divide by 2: Tumor volume (in mm3)={(d in mm)^22}×(L in mm)
TSC or saline (controls) was injected in the tail vein of the rats at a volume of 0.1 mL and a dose of 0.25 mg/kg TSC about 1-2 hours before the chemotherapeutic agent was injected intraperitoneally (IP) in the rats.
In order to understand which dosages are efficacious when used with chemotherapy, a rat model of breast tumors was used. The model involves injecting the chemical dimethylbenzanthracene (DMBA) under the mammary gland of a female Sprague-Dawley rat. After a few days, tumors begin to grow and can be measured by feeling the football-shaped tumor under the skin and measured using calipers.

For series [4], the system named is metastatic pancreatic cancer. Conditions: metastatic disease, erlotinib with gemcitabine vs gemcitabine alone, cited from earlier work; for one-year survival rate: P=0.023; for median overall survival: P=0.038.
The subject of series [5] is newly diagnosed GBM. Conditions: cited from earlier work.
For series [6], the system named is recurrent GBM. The settings on record: cited from earlier work.

Where two headings read alike, the source gives them in different places.

As to `Nc1ccn([C@@H]2O[C@H](CO)[C@@H](O)C2(F)F)c(=O)n1` [gemcitabine, reference compound], the overall survival in series [1] is given as 6.7 months; in series [2], 6.8 months. Also, the mortality result is reported as “Most rats in both groups were dead on Day 7” in series [3] (gemcitabine 5 mg/kg IP on days 0, 3) and “Most rats in both groups were dead on Day 6” in series [3] (gemcitabine 10 mg/kg IP on days 0, 3). In series [4], the one-year survival rate was 17%. The median overall survival in series [4] was 5.91 months.
For Folfirinox, the overall survival in series [2] was 11.1 months. The adverse events entry in series [2] (Folfirinox treatment) is “accompanied by serious adverse events”.
On to bevacizumab, for which the “symptom burden, quality of life, neurocognitive function” value in series [5] (human, in vivo) was “increased symptom burden, a worse quality of life, and a decline in neurocognitive function”. In addition, in series [5] (radiation, TMZ and bevacizumab vs only radiation and TMZ, both studies), the progression free survival entry is on record as “increase in progression free survival”. For the same compound, the overall survival result in series [5] (radiation, TMZ and bevacizumab vs only radiation and TMZ, two clinical trials) is listed as “no difference in overall survival”. The overall six-month survival in series [6] (Phase 2 study, recurrent GBM) is on record as 54%. Also, the six-month progression-free survival in series [6] (Phase 2 study, recurrent GBM, historical 9-15%) is listed as 25%; in series [6] (another Phase 2 study, lower dose but higher frequency) it was 42.6%.
As for `C#Cc1cccc(Nc2ncnc3cc(OCCOC)c(OCCOC)cc23)c1` [erlotinib], in series [4], the one-year survival rate is reported as 23% and the median overall survival is reported as 6.24 months.

Source of the values: patent US11185523B2, “Use of bipolar trans carotenoids with chemotherapy and radiotherapy for treatment of cancer” (DIFFUSION PHARMACEUTICALS LLC, priority 2016, dated 2021).
